Key:
[1] = target: T1, human muscarinic M4 receptor (Homo sapiens, UniProt P08173); experiment: Alphascreen Surefire phospho-ERK1/2 functional assay, M4; assay type: cell-based; details: for EC50 / % Emax cf. ACh, M4: CHO cells stably expressing human M4; for EC50: phospho-ERK1/2, * = variable results, read-out: pEC50 M4 (converted); for Emax: CHO, read-out: % Emax cf. ACh, M4, CHO cells stably expressing human M4; for Emax / % Emax cf. ACh, M4: relative to ACh
T1 construct: expressed in transfected cells
T1 sequence (P08173 1-479): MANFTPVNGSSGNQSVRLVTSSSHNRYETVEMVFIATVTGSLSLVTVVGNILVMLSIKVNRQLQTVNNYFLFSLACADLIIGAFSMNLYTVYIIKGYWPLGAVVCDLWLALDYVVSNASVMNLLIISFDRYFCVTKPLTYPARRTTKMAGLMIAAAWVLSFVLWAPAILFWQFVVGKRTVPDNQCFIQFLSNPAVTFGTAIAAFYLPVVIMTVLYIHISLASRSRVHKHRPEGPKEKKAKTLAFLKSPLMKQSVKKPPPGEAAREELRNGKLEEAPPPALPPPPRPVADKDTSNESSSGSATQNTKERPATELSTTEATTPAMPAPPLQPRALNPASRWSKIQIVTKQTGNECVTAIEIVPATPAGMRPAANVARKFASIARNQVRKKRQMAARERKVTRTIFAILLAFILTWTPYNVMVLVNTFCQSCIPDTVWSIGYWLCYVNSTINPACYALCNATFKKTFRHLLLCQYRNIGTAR

[2] = target: T2, human muscarinic M1 receptor (Homo sapiens, UniProt P11229); experiment: Alphascreen Surefire phospho-ERK1/2 functional assay, M1; assay type: cell-based; details: for EC50: read-out: pEC50 M1 (converted); for Emax: CHO, read-out: % Emax cf. ACh, M1, CHO cells stably expressing human M1; for Emax / % Emax cf. ACh, M1: relative to ACh
T2 sequence (P11229 1-460): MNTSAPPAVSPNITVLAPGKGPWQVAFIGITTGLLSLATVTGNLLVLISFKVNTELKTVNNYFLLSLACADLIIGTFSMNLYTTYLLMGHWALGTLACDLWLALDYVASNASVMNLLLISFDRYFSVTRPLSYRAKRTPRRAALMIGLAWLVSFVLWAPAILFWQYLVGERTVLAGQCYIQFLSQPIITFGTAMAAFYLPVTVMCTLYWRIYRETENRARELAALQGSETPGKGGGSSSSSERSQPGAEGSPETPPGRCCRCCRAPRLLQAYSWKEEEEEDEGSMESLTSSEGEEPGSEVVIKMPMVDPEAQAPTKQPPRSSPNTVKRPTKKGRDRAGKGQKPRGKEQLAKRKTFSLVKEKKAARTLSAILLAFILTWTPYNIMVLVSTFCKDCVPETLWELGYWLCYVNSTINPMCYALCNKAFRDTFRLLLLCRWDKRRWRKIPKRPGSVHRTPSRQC

[3] = CHO cells stably expressing human M1, phospho-ERK1/2, * = variable results
[4] = CHO cells stably expressing human M1

EC50 [1] [nM] | Emax [1] [%] | EC50 [2, 3] [nM] | Emax [2] [%] | % Emax cf. ACh, M4 [1] [%] | % Emax cf. ACh, M1 [2, 4] [%] | pEC50 M1 [2, 3] | Compound
10 | 72 | > 20000 | 11 | – | – | – | CCOC(=O)N1CCC2(CC(N3CCC(N4CCCC4c4ccon4)CC3)C2)C1 (single isomer, unassigned) [2-127 Isomer 2, ethyl 2-{4-[2-(1,2-oxazol-3-yl)pyrrolidin-1-yl]piperidin-1-yl}-6-azaspiro[3.4]octane-6-carboxylate]
1580 | 104 | 10000 | 89 | – | – | – | CCOC(=O)N1CCC2(CC(N3CCC(N4CCCC4c4nnn[nH]4)CC3)C2)C1 (single isomer, unassigned) [2-128 Isomer 2, ethyl 2-{4-[2-(1H-tetrazol-5-yl)pyrrolidin-1-yl]piperidin-1-yl}-6-azaspiro[3.4]octane-6-carboxylate]
100 | 55 | > 20000 | 12 | – | – | – | CCOC(=O)N1CCC2(CC(N3CCC(N4CCCC4c4nnn(C)n4)CC3)C2)C1 (single isomer, unassigned) [2-129 Isomer 2, ethyl 2-{4-[2-(2-methyl-2H-tetrazol-5-yl)pyrrolidin-1-yl]piperidin-1-yl}-6-azaspiro[3.4]octane-6-carboxylate]
12.6 | – | 316 | – | 20 | 42 | – | CCOC(=O)N1CCC2(CC(N3CCC(N4CCCC4c4nnnn4C)CC3)C2)C1 (single isomer, unassigned) [2-130 Isomer 1, ethyl 2-{4-[2-(1-methyl-1H-tetrazol-5-yl)pyrrolidin-1-yl]piperidin-1-yl}-6-azaspiro[3.4]octane-6-carboxylate]
63.1 | – | > 20000 | – | 66 | 11 | – | CCOC(=O)N1CCC2(CC(N3CCC(N4CCCC4c4nnnn4C)CC3)C2)C1 (single isomer, unassigned) [2-130 Isomer 2, ethyl 2-{4-[2-(1-methyl-1H-tetrazol-5-yl)pyrrolidin-1-yl]piperidin-1-yl}-6-azaspiro[3.4]octane-6-carboxylate]
158 | 108 | 501 | 61 | – | – | – | CCOC(=O)N1CCC2(CC(N3CCC(N4CCC[C@@H]4c4cccs4)CC3)C2)C1 (single isomer, unassigned) [2-131 Isomer 2]
12.6 | 72 | > 20000 | 18 | – | – | – | CCOC(=O)N1CCC2(CC(N3CCC(N4CCC[C@@H]4c4nccs4)CC3)C2)C1 (single isomer, unassigned) [2-132 Isomer 2]
10 | – | > 20000 | – | 70 | 37 | – | CCOC(=O)N1CCC2(CC(N3CCC([C@@H]4CCCN4C(=O)N4Cc5cccnc5C4)CC3)C2)C1 (single isomer, unassigned) [2-133 Isomer 1]
0.631 | – | 79.4 | – | 118 | 69 | – | CCOC(=O)N1CCC2(CC(N3CCC([C@@H]4CCCN4C(=O)N4Cc5cccnc5C4)CC3)C2)C1 (single isomer, unassigned) [2-133 Isomer 2]
63.1 | 95 | > 20000 | 18 | – | – | – | CCOC(=O)N1CCC2(CC(N3CCC(N4C[C@H](F)C[C@@H]4C(=O)OC)CC3)C2)C1 (single isomer, unassigned) [2-134 Isomer 2]
12.6 | 90 | > 20000 | 15 | – | – | – | CCOC(=O)N1CCC2(CC(N3CCC(N4C[C@@H](F)C[C@@H]4C(=O)OC)CC3)C2)C1 (single isomer, unassigned) [2-135 Isomer 2]
12.6 | – | 631 | – | – | – | – | CCOC(=O)N1CCC2(CC(N3CCC(N4C[C@H](F)C[C@@H]4CO)CC3)C2)C1 (single isomer, unassigned) [2-136 Isomer 2]
39.8 | 111 | 1000 | 78 | – | – | – | CCOC(=O)N1CCC2(CC(N3CCC(N4C[C@@H](F)C[C@@H]4CO)CC3)C2)C1 (single isomer, unassigned) [2-137 Isomer 2]
39.8 | 44 | > 20000 | 17 | – | – | – | CCOC(=O)N1CCC2(CC(N3CCC([C@@H]4CCCN4c4nnc(C)o4)CC3)C2)C1 (single isomer, unassigned) [2-138 Isomer 2]
100 | 39 | > 20000 | 40 | – | – | – | CCOC(=O)N1CCC2(CC(N3CCC(c4cnc(OC)c(C)c4)CC3)C2)C1 (single isomer, unassigned) [3-7 Isomer 2, ethyl 2-[4-(6-methoxy-5-methylpyridin-3-yl)piperidin-1-yl]-6-azaspiro[3.4]octane-6-carboxylate]
25.1 | 58 | 39.8 | 36 | – | – | – | CCOC(=O)N1CCC2(CC(N3CCC(c4c(C)ccnc4OC)CC3)C2)C1 (single isomer, unassigned) [3-11 Isomer 2, ethyl 2-[4-(2-methoxy-4-methylpyridin-3-yl)piperidin-1-yl]-6-azaspiro[3.4]octane-6-carboxylate]
501 | 65 | 3160 | – | – | 65 | – | CCOC(=O)N1CCC2(CC(N3CCC(c4c(C)cc[nH]c4=O)CC3)C2)C1 (single isomer, unassigned) [3-14 Isomer 1, ethyl 2-[4-(4-methyl-2-oxo-1,2-dihydropyridin-3-yl)piperidin-1-yl]-6-azaspiro[3.4]octane-6-carboxylate]
251 | – | – | – | 75 | 29 | 5.5 | CCOC(=O)N1CCC2(CC(N3CCC(c4c(C)cc[nH]c4=O)CC3)C2)C1 (single isomer, unassigned) [3-14 Isomer 2, ethyl 2-[4-(4-methyl-2-oxo-1,2-dihydropyridin-3-yl)piperidin-1-yl]-6-azaspiro[3.4]octane-6-carboxylate]
39.8 | 36 | 251 | 60 | – | – | – | CCOC(=O)N1CCC2(CC(N3CCC(c4cc(C)c[nH]c4=O)CC3)C2)C1 (single isomer, unassigned) [3-15 Isomer 2, ethyl 2-[4-(5-methyl-2-oxo-1,2-dihydropyridin-3-yl)piperidin-1-yl]-6-azaspiro[3.4]octane-6-carboxylate]
2510 | 47 | 7940 | 39 | – | – | – | CCOC(=O)N1CCC2(CC(N3CCC(c4cc[nH]c(=O)c4)CC3)C2)C1 (single isomer, unassigned) [3-16 Isomer 2, ethyl 2-[4-(2-oxo-1,2-dihydropyridin-4-yl)piperidin-1-yl]-6-azaspiro[3.4]octane-6-carboxylate]
69.2 | – | > 20000 | – | 47 | 10 | – | CCOC(=O)N1CCC2(CC(N3CCC(C4CCCNC4=O)CC3)C2)C1 (single isomer, unassigned) [4-1 Isomer 2, ethyl 2-(2-oxo-3,4′-bipiperidin-1′-yl)-6-azaspiro[3.4]octane-6-carboxylate]
79.4 | 42 | 794 | 94 | – | – | – | COC(=O)N1CCC2(CC(N3CCC(C4CCCNC4=O)CC3)C2)C1 (single isomer, unassigned) [4-2 Isomer 4, methyl 2-(2-oxo-3,4′-bipiperidin-1′-yl)-6-azaspiro[3.4]octane-6-carboxylate]

From patent publication US9926297B2, “Bicyclic AZA compounds as muscarinic M1 receptor and/or M4 receptor agonists” (Heptares Therapeutics Limited, priority 2014, dated 2018)
